Data on 3 compounds can be found in patent US20170209415A1, “USE OF (+)-1-(3,4-DICHLOROPHENYL)-3-AZABICYCLO[3.1.0]HEXANE TO TREAT ADDICTIVE DISORDERS INCLUDING NICOTINE ADDICTION” (priority 2012, published 2017).

Broadly, the inhibition is the relative decrease from the control value, in per cent.

The conditions of data set [1]: cited from earlier work.
For data set [2], the target named is T1, α7 nicotinic receptors (Homo sapiens, UniProt P36544).
T1 construct: Cerep, Inc. (Poitiers, France), contract assay; host or cells: SH-SYSY (SH-SY5Y) cells
Put plainly: Radioligand binding to α7 nicotinic receptors in SH-SYSY cells ([125I]α-bungarotoxin). The method, then: (§1) To examine the possibility that a (+)-1-(3, 4-dichlorophenyl)-3-azabicyclo[3.1.0]hexane may have effects mediated via direct actions on nicotinic receptors, its affinity was determined for α7 and α4β2 nicotinic receptors in radioligand binding assays. The assessment was conducted by Cerep, Inc. (Poitiers, France). Inhibition of binding to α4β2 nicotinic receptors in SH-SYSY cells was determined using the radioligand [^3H]cytosine at 0.6 nM concentration according to the method of Gopalakrishnan et al. (1996). Incubation was for 120 minutes at 4° C. and non-specific binding was determined with 10 μM nicotine. Inhibition of binding to α7 nicotinic receptors in SH-SYSY cells was determined using [^125I]α-bungarotoxin (0.05 nM) according to the method of Sharples et al. (2000). Incubation was 120 minutes at 37° C. and non-specific binding was determined using α-bungarotoxin (1 μM). Specific binding of the radioligands was determined by scintillation spectrometry technology.

Data set [3] concerns alcohol-preferring (P) rats. As to the kind of experiment: Nicotine sensitization, open field locomotor activity in alcohol-preferring rats. Format: in vivo, rat. Particulars: for locomotor activity when administered alone: oral 2.5-40 mg/kg without nicotine, P rats. Here is the method:
P and NP (alcohol-nonpreferring) rats were administered nicotine by subcutaneous injection of 0.4 mg/kg nicotine each day for 10 days. The rats were then immediately run for 90 minute locomotor sessions using an open-field activity monitoring cage (27×27×20.3 cm, Med Associates, Inc., St. Albans, Vt.). Activity counts represented by the number of infrared beam interruptions were recorded for each animal.
To evaluate the capacity of oral (+)-1-(3, 4-dichlorophenyl)-3-azabicyclo[3.1.0]hexane to block nicotine-induced sensitization in P rats, cohorts of P rats (n=6-9/group) were sensitized to nicotine as described in Example I. The rats were then divided into sixteen groups and given either vehicle, nicotine alone, 2.5 mg/kg (+)-1-(3, 4-dichlorophenyl)-3-azabicyclo[3.1.0]hexane, 5 mg/kg (+)-1-(3, 4-dichlorophenyl)-3-azabicyclo[3.1.0]hexane, 10 mg/kg (+)-1-(3, 4-dichlorophenyl)-3-azabicyclo[3.1.0]hexane, 25 mg/kg (+)-1-(3, 4-dichlorophenyl)-3-azabicyclo[3.1.0]hexane, or 40 mg/kg (+)-1-(3, 4-dichlorophenyl)-3-azabicyclo[3.1.0]hexane. Thirty minutes after administration of (+)-1-(3, 4-dichlorophenyl)-3-azabicyclo[3.1.0]hexane, half of the rats were given 0.4 mg/kg nicotine or vehicle. The rats were then immediately run for 90 minute locomotor sessions using an open-field activity monitoring cage (27×27×20.3 cm, Med Associates, Inc., St. Albans, Vt.). Activity counts represent the number of infrared beam interruptions were recorded for each animal.

The test system of data set [4] is alcohol-preferring (P) rats. As to the kind of experiment: Nicotine withdrawal effects in ICSS paradigm in alcohol-preferring rats. Format: in vivo, rat. Here is the method:
(§2) Rats were anesthetized with isoflurane and an electrode was implanted in the medial forebrain bundles as previously described (Eiler et al., 2005; 2007). Behavioral training and testing was conducted in standard operant chambers (Coulbourn Instruments, Allentown, Pa.) equipped with a removable lever enclosed in a sound attenuating cubicle as previously reported (Eiler et al., 2005; 2007). Four dependent variables were collected in the studies: (1) the frequency that corresponds with 50% of responding (EF50), (2) the minimum/lowest frequency capable of maintaining brain stimulation reward (BSR), (3) the maximum frequency producing the highest rate of lever pressing throughout the BSR session and (4) the total number of lever presses produced during a 20 minute session.
After surgical implantation, rats were trained on a continuous reinforcement (FR1) schedule, and then decreased to a frequency of reinforcement after every six correct responses (FR6) until stabilization. After training, the rats were sensitized with nicotine (0.4 mg/kg daily) for 14 days. 12 hours after the last dose of nicotine, animals were run for a 20 min FR-6 ICSS sessions. ICSS sessions were run every 12 hours (12 hrs, 24 hrs, 36 hrs, 48 hrs, 60 hrs and 72 hrs) for 72 hours.
as §2, with “The effect of (+)-1-(3, 4-dichlorophenyl)-3-azabicyclo[3.1.0]hexane on nicotine withdrawal and ICSS was examined in P rats. Rats” for “Rats”
After surgical implantation, rats were trained on a continuous reinforcement (FR1) schedule, and then decreased to a frequency of reinforcement after every six correct responses (FR6) until stabilization. After training, the rats were sensitized with nicotine (0.4 mg/kg daily) for 14 days. Rats were then given either PBS, 20 mg/kg of (+)-1-(3, 4-dichlorophenyl)-3-azabicyclo[3.1.0]hexane or 40 mg/kg of (+)-1-(3, 4-dichlorophenyl)-3-azabicyclo[3.1.0]hexane. After 48 hours, the animals were run for a 20 min FR-6 ICSS session.

Data set [5] has as its target T2, α4β2 nicotinic receptors (Homo sapiens, UniProt P17787+P43681).
T2 construct: Cerep, Inc. (Poitiers, France), contract assay; host or cells: SH-SYSY (SH-SY5Y) cells
Put plainly: Radioligand binding to α4β2 nicotinic receptors in SH-SYSY cells ([3H]cytosine). Here is the method:
as §1

The subject of data set [6] is alcohol-preferring (P) rats. As to the kind of experiment: Nicotine potentiation of intracranial self-stimulation (ICSS) in alcohol-preferring rats. The data set is classed as in vivo, rat. Here is the method: as §2, with “BSR session,” for “BSR session”
After surgical implantation, rats were trained on a continuous reinforcement (FR1) schedule, then decreased to a frequency of reinforcement after every six correct responses (FR6) until stabilization.
Following the initial ICSS experiments, the effects of varied doses of nicotine were examined in the ICSS paradigm. Animals were prepared and trained as described above.
as §2, with “The effect of (+)-1-(3, 4-dichlorophenyl)-3-azabicyclo[3.1.0]hexane on the nicotine facilitation of ICSS was examined in P rats. Rats” for “Rats”
After surgical implantation, rats were trained on a continuous reinforcement (FR1) schedule, then decreased to a frequency of reinforcement after every six correct responses (FR6) until stabilization. After training, the rats were sensitized with nicotine (0.4 mg/kg daily) using the Kelley 10-day sensitization model as described in Example I (rats were treated with either nicotine (0.4 mg/ml/kg) or saline once per day for 10 days in a test environment distinct from their home cages (Schroeder et al., 2001).
After sensitization, three of the nicotine cohorts of P rats (n=8) were given (+)-1-(3, 4-dichlorophenyl)-3-azabicyclo[3.1.0]hexane (10, 20 or 40 μg) into the medial prefrontal cortex (mPC) prior to the daily administration of nicotine (0.4 mg/ml/kg).

In data set [7] the test system is alcohol-preferring (P) rats. Put plainly: Forced swim test during nicotine withdrawal in alcohol-preferring rats. Format: in vivo, rat. Here is the method:
The forced swim test (FST) is an animal model of depression in which nicotine withdrawal causes increased immobility (i.e. despair) in the rodents. The FST accordingly may be used as an animal model to evaluate negative affective states during nicotine withdrawal, which may emulate “depressive-like” behavior in human nicotine addicts.
P rats were administered nicotine by subcutaneous injection of 0.4 mg/kg nicotine each day for 14 days and then deprived of nicotine. Lucki's modified FST (Cryan et al., 2002) was performed using immobility, climbing and swimming every twelve hours following the last dose of nicotine (12 hrs, 24 hrs, 36 hrs, 48 hrs, 60 hrs and 72 hrs) for 72 hours.

The mark [8] stands for this setting: read-out: % Inhibition of binding.
Where [9] appears, read: oral 20 and 40 mg/kg, 48 hours nicotine abstinence.
The mark [10] stands for this setting: 12-72 hrs after last dose, 0.4 mg/kg daily for 14 days.
The mark [11] stands for this setting: 0.2-0.8 mg/kg SQ, all 3 doses, sensitized P rats.
The mark [12] stands for this setting: after 0.4 mg/kg sc daily for 14 days.

T1 sequence (P36544 23-502): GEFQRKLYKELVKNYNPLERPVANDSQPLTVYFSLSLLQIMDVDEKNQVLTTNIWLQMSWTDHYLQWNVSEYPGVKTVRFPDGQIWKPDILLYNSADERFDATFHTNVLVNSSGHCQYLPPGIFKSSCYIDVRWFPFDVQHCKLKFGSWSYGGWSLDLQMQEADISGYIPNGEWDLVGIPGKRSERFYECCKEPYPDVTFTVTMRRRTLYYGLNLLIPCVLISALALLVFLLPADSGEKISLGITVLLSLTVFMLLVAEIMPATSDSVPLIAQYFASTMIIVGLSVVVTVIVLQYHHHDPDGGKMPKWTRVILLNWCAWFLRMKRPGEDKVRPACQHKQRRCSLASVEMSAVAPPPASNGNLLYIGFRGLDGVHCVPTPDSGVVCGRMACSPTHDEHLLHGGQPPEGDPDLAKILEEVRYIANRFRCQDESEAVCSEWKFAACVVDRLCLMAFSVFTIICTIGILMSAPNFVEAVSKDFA
T2 sequence (P43681 29-627 limits assumed): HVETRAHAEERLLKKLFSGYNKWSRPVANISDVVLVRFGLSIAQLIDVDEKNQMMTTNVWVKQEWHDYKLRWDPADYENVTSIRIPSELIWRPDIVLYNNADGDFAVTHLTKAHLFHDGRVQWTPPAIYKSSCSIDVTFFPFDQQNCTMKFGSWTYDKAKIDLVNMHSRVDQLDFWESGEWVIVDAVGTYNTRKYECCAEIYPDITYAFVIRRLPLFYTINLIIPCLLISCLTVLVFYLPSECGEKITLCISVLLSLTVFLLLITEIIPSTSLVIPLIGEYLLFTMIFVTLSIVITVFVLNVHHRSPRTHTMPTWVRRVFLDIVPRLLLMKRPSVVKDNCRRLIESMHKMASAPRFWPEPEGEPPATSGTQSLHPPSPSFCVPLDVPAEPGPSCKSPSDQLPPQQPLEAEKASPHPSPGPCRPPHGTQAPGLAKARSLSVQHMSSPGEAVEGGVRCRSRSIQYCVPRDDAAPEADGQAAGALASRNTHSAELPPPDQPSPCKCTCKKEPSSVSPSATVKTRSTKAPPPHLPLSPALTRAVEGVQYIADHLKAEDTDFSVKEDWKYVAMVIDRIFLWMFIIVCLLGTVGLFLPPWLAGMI
T2 sequence (P17787 26-502): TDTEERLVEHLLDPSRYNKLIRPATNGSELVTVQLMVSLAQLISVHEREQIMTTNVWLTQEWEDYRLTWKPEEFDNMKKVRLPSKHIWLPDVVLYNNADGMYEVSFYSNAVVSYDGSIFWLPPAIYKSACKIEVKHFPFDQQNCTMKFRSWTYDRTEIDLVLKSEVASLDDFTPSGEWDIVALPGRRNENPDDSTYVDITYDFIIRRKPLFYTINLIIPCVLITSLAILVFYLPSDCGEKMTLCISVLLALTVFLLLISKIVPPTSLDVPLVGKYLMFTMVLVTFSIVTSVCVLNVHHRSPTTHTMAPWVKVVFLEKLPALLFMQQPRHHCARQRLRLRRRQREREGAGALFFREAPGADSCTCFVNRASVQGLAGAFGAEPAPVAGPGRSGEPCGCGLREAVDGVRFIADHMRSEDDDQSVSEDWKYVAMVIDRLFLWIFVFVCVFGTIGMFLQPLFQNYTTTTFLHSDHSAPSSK

For the compound `COC[C@@H]1[C@@H](c2ccc(Cl)c(Cl)c2)C[C@@H]2CC[C@H]1N2` [GSK372475, reference compound], the “noradrenergic side effects such as significantly elevated heart rate and increased systolic and diastolic blood pressure” value in data set [1] (in vivo) was “seen”.

For the compound `Clc1ccc([C@]23CNC[C@H]2C3)cc1Cl` [amitifadine, (1R,5S)-(+)-1-(3,4-dichlorophenyl)-3-azabicyclo[3.1.0]hexane], in data set [2] (setting [8]), the inhibition at 0.1 µM was 13%, the inhibition at 1 µM was 6% and the inhibition at 10 µM is -9%. In addition, the “effect on binding of radioligand” value in data set [2] (α7, concentrations from 100 to 10,000 nM) is listed as “no appreciable effect”. Besides, the “nicotine-induced increases in horizontal activity” value in data set [3] (oral 2.5, 5, 10, 25, 40 mg/kg, 30 min before 0.4 mg/kg nicotine, sensitized P rats, 90 minute open field session) is recorded as “significantly reduced”. Besides, the “locomotor activity when administered alone” value in data set [3] (90 minute open field session) is on record as “did not significantly alter”. In addition, in data set [3] (90 minute open field session, listed as (+)-1-(3, 4-dichlorophenyl)-3-azabicyclo[3.1.0]hexane), the “locomotor activity when administered alone” value was “did not alter”. Also, in data set [4] (oral 20 and 40 mg/kg), the “reduction in responding produced by the 48 hour withdrawal period” value was “elevated”. In addition, in data set [4] (setting [9]), the “nicotine elevation of the reward threshold, EF50” value is “profound reduction” and the “nicotine elevation of the reward threshold, minimum frequency” value was “profound reduction”. In addition, the inhibition at 0.1 µM in data set [5] (concentration 100 nM) is 17%. In data set [5] (concentration 1000 nM), the inhibition at 1 µM was 14%. For the same compound, the inhibition at 10 µM in data set [5] (concentration 10000 nM) stood at 13%. In addition, in data set [5] (concentrations from 100 to 10,000 nM), the “effect on binding of radioligand” value is “no appreciable effect”. In data set [6] (10, 20 or 40 μg into mPC), the “nicotine elevation in total responding” value is “attenuation”, the “nicotine reduction of EF50” value is “attenuation” and the “nicotine reduction of minimum frequency” value is “attenuation”. Also, the “nicotine facilitation on ICSS” value in data set [6] (10, 20 or 40 μg into medial prefrontal cortex immediately prior to nicotine 0.4 mg/ml/kg, P rats) was “significantly reduced”. Moreover, the tolerability result in data set [1] (U.S. Ser. No. 13/310,694, Graff et al. 2009) is given as “well tolerated”. For the same compound, in data set [1] (in vivo), the “dopaminergic side effects such as nausea, vomiting, and hypomania” value is on record as “did not lead to”; the “noradrenergic side effects such as significantly elevated heart rate and increased systolic and diastolic blood pressure” value is “did not lead to”. The “nicotine-induced increases in immobility” value in data set [7] (oral 12.5 or 25 mg/kg administered at 48 hours of nicotine abstinence) was “significantly attenuated”.

For the compound `CN1CCCC1c1cccnc1` (stereo not shown) [nicotine], in data set [3] (0.4 mg/kg sc daily for 10 days, P versus NP rats), the “sensitization to nicotine (open field activity)” value is recorded as “occurs in P rats only”. Moreover, in data set [4] (setting [10]), the EF50 during withdrawal result is recorded as “time dependent increase”, the “minimum frequency capable of maintaining BSR during withdrawal” value was “time dependent increase” and the “total ICSS responding during withdrawal” value was “marked reduction”. Further, the “sensitivity to the reward potentiating effects of nicotine in ICSS following sensitization” value in data set [6] (0.4 mg/kg sc on day 11, P, but not NP, rats) is “enhanced sensitivity”. The “ICSS responding versus saline” value in data set [6] (0.2-0.8 mg/kg SQ on day 11, sensitized P rats) is on record as “higher responding than did saline”. In addition, in data set [6] (setting [11]), the EF50 result is given as “reduction” and the minimum frequency result is “reduction”. Also, in data set [7] (setting [12]), the “climbing during nicotine abstinence” value is listed as “Reduction” and the “swimming during nicotine abstinence” value is “Reduction”. In data set [7] (at 48 and 72 hours after 0.4 mg/kg sc daily for 14 days), the “immobility during nicotine abstinence” value is given as “significant elevation”.
